Laboratory results taken from PubChem BioAssay AID212 (DTP/NCI, 2004).
Several values for one entry are separate records, joined by “and”; a condition that tells them apart may be missing. Equal values may be shown once. Inconclusive results are not listed.

System: BDF1 mice, colon carcinoma 38 sc, T/C %
Assay: NCI In Vivo Anticancer Drug Screen. Data for tumor model Colon Carcinoma 38 (subcutaneous) in B6D2F1 (BDF1) mice
Details: endpoint: median tumor weight (est.), higher = larger tumour
Summary of the method: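 Ratio of survival or tumor size, compound-treated animals relative to vehicle controls, in tumor-bearing mice.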

[1] = dose: 12.5 mg/kg/injection, schedule: Q07DX002 (ip), vehicle: suspension in saline
[2] = dose: 25.0 mg/kg/injection, schedule: Q07DX002 (ip), vehicle: suspension in saline
[3] = dose: 50.0 mg/kg/injection, schedule: Q07DX002 (ip), vehicle: saline
[4] = dose: 50.0 mg/kg/injection, schedule: Q07DX002 (ip), vehicle: suspension in saline
[5] = dose: 50.0 mg/kg/injection, schedule: Q07DX002 (ip), vehicle: water
[6] = dose: 200.0 mg/kg/injection, schedule: Q07DX002 (ip), vehicle: saline
[7] = dose: 400.0 mg/kg/injection, schedule: Q07DX002 (ip), vehicle: saline
[8] = dose: 25.0 mg/kg/injection, schedule: Q07DX002 (ip), vehicle: saline
[9] = dose: 100.0 mg/kg/injection, schedule: Q07DX002 (ip), vehicle: saline
[10] = dose: 25.0 mg/kg/injection, schedule: Q07DX002 (ip), vehicle: saline with Tween-80
[11] = dose: 100.0 mg/kg/injection, schedule: Q07DX002 (ip), vehicle: saline with Tween-80
[12] = dose: 200.0 mg/kg/injection, schedule: Q07DX002 (ip), vehicle: saline with Tween-80
[13] = dose: 400.0 mg/kg/injection, schedule: Q07DX002 (ip), vehicle: saline with Tween-80
[14] = dose: 12.5 mg/kg/injection, schedule: Q07DX002 (ip), vehicle: saline with Tween-80
[15] = dose: 50.0 mg/kg/injection, schedule: Q07DX002 (ip), vehicle: saline with Tween-80
[16] = dose: 25.0 mg/kg/injection, schedule: Q07DX003 (ip), vehicle: Klucel (hydroxypropylcellulose) (HPC)
[17] = dose: 200.0 mg/kg/injection, schedule: Q07DX003 (ip), vehicle: Klucel (hydroxypropylcellulose) (HPC)
[18] = dose: 12.5 mg/kg/injection, schedule: Q07DX002 (ip), vehicle: saline

With `CC(C)[C@](O)(C(=O)OCC1=CCN2CC[C@@H](O)[C@@H]12)[C@H](C)O` the T/C [1] was 123 % of control, the T/C [2] was 76 % of control and the T/C [3] was 85 % of control. The T/C [4] was 74 % of control, the T/C [5] was 73 % of control and the T/C (dose: 100.0 mg/kg/injection, schedule: Q07DX002 (ip), vehicle: suspension in saline) was 56 % of control. For the same compound, the T/C (dose: 100.0 mg/kg/injection, schedule: Q07DX002 (ip), vehicle: water) was 184 % of control, the T/C [6] was 105 % of control and the T/C (dose: 200.0 mg/kg/injection, schedule: Q07DX002 (ip), vehicle: suspension in saline) was 98 % of control. The T/C [7] was 81 % of control, the T/C (dose: 400.0 mg/kg/injection, schedule: Q07DX002 (ip), vehicle: suspension in saline) was 95 % of control and the T/C (dose: 400.0 mg/kg/injection, schedule: Q07DX002 (ip), vehicle: water) was 52 % of control.

In the case of `O=C1N(CC2CO2)CCN1CC1CO1` (configuration not stated), the T/C [8] is reported as 39 % of control, the T/C [3] is reported as 26 % of control and the T/C [9] is reported as 41 % of control. The T/C [6] was 41 % of control and the T/C [7] was 29 % of control.

For `CC(C)NC(=O)N(CCCCBr)N=O`, the T/C (dose: 25.0 mg/kg/injection, schedule: Q07DX002 (ip), vehicle: Klucel (hydroxypropylcellulose) (HPC)) was 90 % of control, the T/C (dose: 50.0 mg/kg/injection, schedule: Q07DX002 (ip), vehicle: Klucel (hydroxypropylcellulose) (HPC)) was 86 % of control and the T/C (dose: 100.0 mg/kg/injection, schedule: Q07DX002 (ip), vehicle: Klucel (hydroxypropylcellulose) (HPC)) was 70 % of control. The T/C (dose: 200.0 mg/kg/injection, schedule: Q07DX002 (ip), vehicle: Klucel (hydroxypropylcellulose) (HPC)) was 56 % of control.

`O=C(O)C1(C(=O)O)CCC1.[NH2-].[NH2-].[Pt+2]` was tested, and the T/C (dose: 6.25 mg/kg/injection, schedule: Q07DX002 (ip), vehicle: dextrose) was 81 % of control, the T/C (dose: 6.25 mg/kg/injection, schedule: Q07DX003 (ip), vehicle: other) was 53 % of control and the T/C (dose: 12.5 mg/kg/injection, schedule: Q07DX003 (ip), vehicle: other) was 81 % of control. The T/C (dose: 25.0 mg/kg/injection, schedule: Q07DX003 (ip), vehicle: dextrose) was 64 % of control, the T/C (dose: 25.0 mg/kg/injection, schedule: Q07DX003 (ip), vehicle: other) was 74 % of control and the T/C (dose: 50.0 mg/kg/injection, schedule: Q07DX003 (ip), vehicle: dextrose) was 34 % of control. The T/C (dose: 50.0 mg/kg/injection, schedule: Q07DX003 (ip), vehicle: other) was 42 % of control, the T/C (dose: 100.0 mg/kg/injection, schedule: Q07DX003 (ip), vehicle: dextrose) was 25 % of control and the T/C (dose: 100.0 mg/kg/injection, schedule: Q07DX003 (ip), vehicle: other) was 21 % of control.

With `COC1=C(OC)C(=O)C(SC/C=C(\C)CCCC(C)CCCC(C)CCCC(C)C)=CC1=O` (configuration not stated) the T/C [10] was 55 % of control, the T/C [11] was 116 % of control and the T/C [12] was 86 % of control. The T/C [13] was 102 % of control.

For `COc1cccc2c1C(=O)c1c(O)c3c(c(O)c1C2=O)C[C@@](O)(C(O)CO)C[C@@H]3OC1CC(N(Cc2ccccc2)Cc2ccccc2)C(O)C(C)O1` (some centres not stated), the T/C (dose: 12.5 mg/kg/injection, schedule: Q07DX002 (ip), vehicle: water) was 75 % of control, the T/C (dose: 25.0 mg/kg/injection, schedule: Q07DX002 (ip), vehicle: water) was 72 % of control and the T/C [5] was 36 % of control.

For `CCCCCCCCCCCCCCCC(=O)O[C@@]12C[C@@H](C)[C@@]3(O)[C@@H](C=C(CO)C[C@]4(O)C(=O)C(C)=C[C@@H]34)[C@@H]1C2(C)C`, the T/C (dose: 0.06 mg/kg/injection, schedule: Q07DX002 (ip), vehicle: saline) was 92 % of control, the T/C (dose: 0.25 mg/kg/injection, schedule: Q07DX002 (ip), vehicle: saline) was 91 % of control and the T/C (dose: 0.5 mg/kg/injection, schedule: Q07DX002 (ip), vehicle: saline) was 101 % of control. For the same compound, the T/C (dose: 1.0 mg/kg/injection, schedule: Q07DX002 (ip), vehicle: saline) was 60 % of control.

`COC1/C=C/O[C@@]2(C)Oc3c(C)c(O)c4c(O)c(cc(O)c4c3C2=O)NC(=O)/C(C)=C\C=C\[C@H](C)C(O)[C@@H](C)[C@@H](O)[C@@H](C)[C@H](OC(C)=O)[C@@H]1C` (some centres not stated) was tested, and the T/C [14] was 72 % of control, the T/C [15] was 79 % of control and the T/C [11] was 84 % of control. The T/C [12] was 77 % of control and the T/C [13] was 98 % of control.

In the case of `CCOC(=O)C1C2OC(=O)C(C(=O)C2CN(CCCl)CCCl)C1C1CC=C(CC2=CCC(C3C4C(=O)OC(C(CN(CCCl)CCCl)C4=O)C3C(=O)OCC)CC2)CC1` (configuration not stated), the T/C (dose: 12.5 mg/kg/injection, schedule: Q07DX003 (ip), vehicle: Klucel (hydroxypropylcellulose) (HPC)) is reported as 95 % of control, the T/C [16] is reported as 117 % of control and the T/C (dose: 50.0 mg/kg/injection, schedule: Q07DX003 (ip), vehicle: Klucel (hydroxypropylcellulose) (HPC)) is reported as 116 % of control. For the same compound, the T/C (dose: 100.0 mg/kg/injection, schedule: Q07DX003 (ip), vehicle: Klucel (hydroxypropylcellulose) (HPC)) was 110 % of control and the T/C [17] was 67 % of control.

With `c1cc(-c2cc3ccc(C4=NCCN4)cc3[nH]2)ccc1C1=NCCN1` the T/C (dose: 6.25 mg/kg/injection, schedule: Q07DX002 (ip), vehicle: saline) was 84 % of control, the T/C (dose: 6.25 mg/kg/injection, schedule: Q07DX002 (ip), vehicle: suspension in saline) was 90 % of control and the T/C [18] was 92 % of control. The T/C [1] was 87 % of control, the T/C [8] was 100 % of control and the T/C [2] was 105 % of control. The T/C [3] was 84 % of control and the T/C [4] was 98 % of control.

In the case of `CC(=O)NCCCCCCNC(C)=O`, the T/C [9] is reported as 77 % of control, the T/C [6] is reported as 66 % of control and 81 % of control and the T/C [7] is reported as 108 % of control. The T/C (dose: 1600.0 mg/kg/injection, schedule: Q07DX002 (ip), vehicle: saline) was 90 % of control and 91 % of control.

In the case of `Nc1ccn([C@@H](C=O)O[C@@H](C=O)CO)c(=O)n1`, the T/C [18] is reported as 99 % of control, the T/C [8] is reported as 71 % of control and the T/C [3] is reported as 58 % of control. For the same compound, the T/C [9] was 86 % of control and the T/C [6] was 73 % of control.

For `CCCCC(C)(C(=O)OCC)C(=O)OCC`, the T/C [16] was 68 % of control and 69 % of control, the T/C [17] was 63 % of control and 85 % of control and the T/C (dose: 400.0 mg/kg/injection, schedule: Q07DX003 (ip), vehicle: Klucel (hydroxypropylcellulose) (HPC)) was 91 % of control and 102 % of control.

`COC1C(O)CC(OC2CC(Oc3cc4cc5c(c(O)c4c(O)c3C)C(=O)[C@@H](OC3CC(OC4CC(OC6CC(C)(O)C(OC(C)=O)C(C)O6)C(O)C(C)O4)C(O)C(C)O3)[C@H]([C@H](OC)C(=O)[C@@H](O)[C@@H](C)O)C5)OC(C)C2OC(C)=O)OC1C` (some centres not stated) was tested, and the T/C (dose: 0.04 mg/kg/injection, schedule: Q07DX002 (ip), vehicle: Klucel (hydroxypropylcellulose) (HPC)) was 109 % of control and 105 % of control, the T/C (dose: 0.08 mg/kg/injection, schedule: Q07DX002 (ip), vehicle: Klucel (hydroxypropylcellulose) (HPC)) was 207 % of control and 76 % of control and the T/C (dose: 0.16 mg/kg/injection, schedule: Q07DX002 (ip), vehicle: Klucel (hydroxypropylcellulose) (HPC)) was 71 % of control.

In the case of `Nc1ccc(S(=O)(=O)Nc2cnc3c(Cl)cccc3n2)cc1`, the T/C (dose: 250.0 mg/kg/injection, schedule: Q07DX002 (ip), vehicle: DMSO) is reported as 82 % of control.

`[O-][n+]1c(CN2CCCCC2)nc2cccc3c2c1-c1ccccc1-3` was tested, and the T/C [14] was 66 % of control, the T/C [15] was 47 % of control and the T/C [12] was 57 % of control. The T/C [13] was 72 % of control and 81 % of control.

In the case of `C/C(=N/NC(N)=S)c1ccc2ccccc2c1`, the T/C (dose: 6.25 mg/kg/injection, schedule: Q07DX002 (ip), vehicle: saline with Tween-80) is reported as 111 % of control, the T/C [14] is reported as 63 % of control and the T/C [10] is reported as 70 % of control and 80 % of control. For the same compound, the T/C [11] was 31 % of control and 48 % of control.

For `CCOC(=O)C1(c2ccccc2)C(=O)Oc2ccccc21` (configuration not stated), the T/C [14] was 94 % of control, the T/C [10] was 112 % of control and 87 % of control and the T/C [15] was 61 % of control. For the same compound, the T/C [13] was 107 % of control.

With `F[B-](F)(F)F` the T/C (dose: 12.5 mg/kg/injection, schedule: Q07DX002 (ip), vehicle: gum acacia) was 105 % of control, the T/C (dose: 25.0 mg/kg/injection, schedule: Q07DX002 (ip), vehicle: gum acacia) was 90 % of control and the T/C (dose: 50.0 mg/kg/injection, schedule: Q07DX002 (ip), vehicle: gum acacia) was 95 % of control. For the same compound, the T/C (dose: 200.0 mg/kg/injection, schedule: Q07DX002 (ip), vehicle: gum acacia) was 64 % of control and the T/C (dose: 400.0 mg/kg/injection, schedule: Q07DX002 (ip), vehicle: gum acacia) was 77 % of control.
